Measured values published in patent publication US20120295907A1, “INSECTICIDAL COMPOUNDS” (SYNGENTA CROP PROTECTION, LLC, priority 2009, published 2012).

Key:
Assay type in all cases: in vivo
Tetranychus urticae = Tetranychus urticae (Two-Spotted Spider Mite) bean leaf disc spray test; conditions: foliar, 192 h, 200 ppm spray on bean leaf discs, mite populations of mixed ages, 8 days, egg, larval and adult mortality, read-out: control of Tetranychus urticae
Plutella xylostella = Plutella xylostella (Diamond Back Moth) artificial diet MTP test; conditions: 144 h, 200 ppm (concentration in well 18 ppm), L2 larvae, 6 days, larval mortality, growth regulation
Thrips tabaci = Thrips tabaci (Onion Thrips) sunflower leaf disc spray test; conditions: foliar, 168 h, 200 ppm spray on sunflower leaf discs, population of mixed ages, 7 days, mortality
Spodoptera littoralis = Spodoptera littoralis (Egyptian Cotton Leafworm) cotton leaf disc spray test; conditions: foliar, 72 h, 200 ppm spray on cotton leaf discs, L1 larvae, mortality, feeding behavior, growth regulation 3 DAT
Diabrotica balteata = Diabrotica balteata (Corn Root Worm) artificial diet MTP test; conditions: 120 h, 200 ppm (concentration in well 18 ppm), L2 larvae, 5 days, larval mortality, growth regulation
Heliothis virescens = Heliothis virescens (Tobacco Budworm) egg test on artificial diet; conditions: 96 h, 200 ppm (concentration in well 18 ppm), eggs 0-24 h old on artificial diet, 4 days, egg mortality, larval mortality, growth regulation

Measured: pest or weed control at 200 ppm

CCc1cc(C(F)(C(F)(F)F)C(F)(F)C(F)(F)F)cc(C)c1NC(=O)c1cccc(NC(=O)c2cccc([N+](=O)[O-])c2C)c1OC (stereo not drawn) [A2, N-[2-ethyl-4-(1,2,2,3,3,3-hexafluoro-1-trifluoromethylpropyl)-6-methylphenyl]-3-(2-methyl-3-nitrobenzoylamino)-2-methoxybenzamide]
≥ 80%: Tetranychus urticae | Plutella xylostella | Thrips tabaci | Spodoptera littoralis

CCc1cc(C(F)(C(F)(F)F)C(F)(F)C(F)(F)F)cc(C)c1NC(=O)c1cccc(NC(=O)c2ccc(C#N)cc2C)c1OC (stereo not drawn) [A5, N-[2-ethyl-4-(1,2,2,3,3,3-hexafluoro-1-trifluoromethylpropyl)-6-methyl-phenyl]-3-(4-cyano-2-methylbenzoylamino)-2-methoxybenzamide]
not listed: Heliothis virescens
≥ 80%: all other assays above

CCc1cc(C(F)(C(F)(F)F)C(F)(F)C(F)(F)F)cc(C)c1NC(=O)c1cccc(NC(=O)c2cccnc2Cl)c1OC (stereo not drawn) [A6]
≥ 80%: all assays above

CCc1cc(C(F)(C(F)(F)F)C(F)(F)C(F)(F)F)cc(C)c1NC(=O)c1cccc(NC(=O)c2cccnc2F)c1OC (stereo not drawn) [A7]
≥ 80%: all assays above

CCc1cc(C(F)(C(F)(F)F)C(F)(F)C(F)(F)F)cc(C)c1NC(=O)c1cccc(NC(=O)c2cc(Cl)ccc2Cl)c1OC (stereo not drawn) [A16]
≥ 80%: all assays above

COc1c(NC(=O)c2ccc(C#N)cc2C)cccc1C(=O)Nc1c(Cl)cc(C(F)(C(F)(F)F)C(F)(F)C(F)(F)F)cc1Br (stereo not drawn) [B1, N-[2-bromo-6-chloro-4-(1,2,2,3,3,3-hexafluoro-1-trifluoromethylpropyl)-phenyl]-3-(4-cyano-2-methylbenzoylamino)-2-methoxybenzamide]
not listed: Diabrotica balteata
≥ 80%: all other assays above

COc1c(NC(=O)c2ccc(F)cc2C)cccc1C(=O)Nc1c(Cl)cc(C(F)(C(F)(F)F)C(F)(F)C(F)(F)F)cc1Br (stereo not drawn) [B9]
≥ 80%: all assays above

COc1c(NC(=O)c2snnc2C)cccc1C(=O)Nc1c(Cl)cc(C(F)(C(F)(F)F)C(F)(F)C(F)(F)F)cc1Br (stereo not drawn) [B21]
≥ 80%: all assays above

COc1c(NC(=O)c2ccc(Cl)cc2[N+](=O)[O-])cccc1C(=O)Nc1c(Cl)cc(C(F)(C(F)(F)F)C(F)(F)C(F)(F)F)cc1Br (stereo not drawn) [B64]
≥ 80%: all assays above

COc1c(NC(=O)c2ccc(Br)c(C)c2)cccc1C(=O)Nc1c(Cl)cc(C(F)(C(F)(F)F)C(F)(F)C(F)(F)F)cc1Br (stereo not drawn) [B65]
not listed: Diabrotica balteata
≥ 80%: all other assays above

COc1c(NC(=O)c2ccc(Cl)s2)cccc1C(=O)Nc1c(Cl)cc(C(F)(C(F)(F)F)C(F)(F)C(F)(F)F)cc1Br (stereo not drawn) [B67]
≥ 80%: all assays above

COc1c(NC(=O)c2cc(F)c(F)cc2Cl)cccc1C(=O)Nc1c(Cl)cc(C(F)(C(F)(F)F)C(F)(F)C(F)(F)F)cc1Br (stereo not drawn) [B73]
≥ 80%: all assays above

COc1c(NC(=O)c2cc(C)ccc2[N+](=O)[O-])cccc1C(=O)Nc1c(Cl)cc(C(F)(C(F)(F)F)C(F)(F)C(F)(F)F)cc1Br (stereo not drawn) [B74]
≥ 80%: all assays above

COc1c(NC(=O)c2cccnc2C(F)(F)F)cccc1C(=O)Nc1c(Cl)cc(C(F)(C(F)(F)F)C(F)(F)C(F)(F)F)cc1Br (stereo not drawn) [B81]
≥ 80%: all assays above

COc1c(NC(=O)c2cc(Cl)nc(Cl)c2)cccc1C(=O)Nc1c(Cl)cc(C(F)(C(F)(F)F)C(F)(F)C(F)(F)F)cc1Br (stereo not drawn) [B97]
≥ 80%: all assays above

COc1c(NC(=O)c2c(Cl)cccc2[N+](=O)[O-])cccc1C(=O)Nc1c(Cl)cc(C(F)(C(F)(F)F)C(F)(F)C(F)(F)F)cc1Br (stereo not drawn) [B101]
≥ 80%: all assays above

COc1c(NC(=O)c2ccc(Cl)c(OC)c2Cl)cccc1C(=O)Nc1c(Cl)cc(C(F)(C(F)(F)F)C(F)(F)C(F)(F)F)cc1Br (stereo not drawn) [B109]
≥ 80%: all assays above

COc1c(NC(=O)c2cccc(CC#N)c2)cccc1C(=O)Nc1c(Cl)cc(C(F)(C(F)(F)F)C(F)(F)C(F)(F)F)cc1Br (stereo not drawn) [B110]
≥ 80%: all assays above

COc1c(NC(=O)c2cc(C(F)(F)F)nn2C)cccc1C(=O)Nc1c(Cl)cc(C(F)(C(F)(F)F)C(F)(F)C(F)(F)F)cc1Br (stereo not drawn) [B113]
≥ 80%: all assays above

COc1c(NC(=O)c2cc(F)ccc2Cl)cccc1C(=O)Nc1c(Cl)cc(C(F)(C(F)(F)F)C(F)(F)C(F)(F)F)cc1Br (stereo not drawn) [B154]
not listed: Heliothis virescens
≥ 80%: all other assays above

COc1c(NC(=O)c2c(F)cccc2F)cccc1C(=O)Nc1c(Cl)cc(C(F)(C(F)(F)F)C(F)(F)C(F)(F)F)cc1Br (stereo not drawn) [B172]
not listed: Diabrotica balteata
≥ 80%: all other assays above

COc1c(NC(=O)c2c(F)cc(C#N)cc2F)cccc1C(=O)Nc1c(Cl)cc(C(F)(C(F)(F)F)C(F)(F)C(F)(F)F)cc1Br (stereo not drawn) [B176]
not listed: Diabrotica balteata
≥ 80%: all other assays above

COc1c(NC(=O)c2ccc([N+](=O)[O-])c(C)c2)cccc1C(=O)Nc1c(Cl)cc(C(F)(C(F)(F)F)C(F)(F)C(F)(F)F)cc1Br (stereo not drawn) [B190]
not listed: Diabrotica balteata
≥ 80%: all other assays above

COc1c(NC(=O)c2ccc([N+](=O)[O-])cc2F)cccc1C(=O)Nc1c(Cl)cc(C(F)(C(F)(F)F)C(F)(F)C(F)(F)F)cc1Br (stereo not drawn) [B191]
not listed: Diabrotica balteata
≥ 80%: all other assays above

COc1c(NC(=O)c2ccc(C(F)(F)F)cc2)cccc1C(=O)Nc1c(Cl)cc(C(F)(C(F)(F)F)C(F)(F)C(F)(F)F)cc1Cl (stereo not drawn) [C15]
not listed: Diabrotica balteata
≥ 80%: all other assays above

COc1c(NC(=O)c2ccc(C#N)cc2C)cccc1C(=O)Nc1c(C)cc(C(F)(C(F)(F)F)C(F)(F)F)cc1C [K4]
not listed: Thrips tabaci
≥ 80%: all other assays above
